Laboratory results from paper PMC10433847, “The Plasmodium Lactate/H^+ Transporter PfFNT Is Essential and Druggable In Vivo” (Antimicrobial Agents and Chemotherapy, 2023).

Target: T1, PfFNT V196L (Plasmodium falciparum, UniProt O77389, V196L)
T1 sequence (O77389 1-309 V196L): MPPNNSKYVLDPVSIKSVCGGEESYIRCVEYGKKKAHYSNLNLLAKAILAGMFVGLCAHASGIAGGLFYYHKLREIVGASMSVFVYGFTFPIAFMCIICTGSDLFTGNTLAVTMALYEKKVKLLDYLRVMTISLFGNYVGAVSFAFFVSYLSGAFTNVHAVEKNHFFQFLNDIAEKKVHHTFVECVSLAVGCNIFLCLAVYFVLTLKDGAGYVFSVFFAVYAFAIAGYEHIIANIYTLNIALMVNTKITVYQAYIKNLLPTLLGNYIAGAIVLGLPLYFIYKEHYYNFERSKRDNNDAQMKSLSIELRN
Type: cell-based
Conditions: pH 6.8; read-out: IC50, inhibition of 14C-lactate transport

Row | Structure (SMILES) | IC50 [nM]
1 | O=C(/C=C(\O)C(F)(F)C(F)(F)F)c1cccnc1 [BH267.meta] | 850 ± 50
2 | COc1ccc2c(c1)OC(O)(C(F)(F)C(F)(F)F)CC2=O (centres unmarked) [MMV007839] | 730 ± 70
